Measured values taken from ChEMBL document CHEMBL4152334, “Synthesis, molecular docking and biological evaluation of novel phthaloyl derivatives of 3-amino-3-aryl propionic acids as inhibitors of Trypanosoma cruzi trans-sialidase” (2018).

Experiments:
Format in all cases: functional
Trypanosoma cruzi [1] = test: Trypanocidal activity against trypomastigote stage of Trypanosoma cruzi INC-5 infected in NIH mouse blood assessed as parasite lysis at 10 ug/ml after 24 hrs by optical microscopic method relative to control
Trypanosoma cruzi [2] = test: Trypanocidal activity against trypomastigote stage of Trypanosoma cruzi NINOA infected in NIH mouse blood assessed as parasite lysis at 10 ug/ml after 24 hrs by optical microscopic method relative to control
Trypanosoma cruzi [3] = test: Trypanocidal activity against trypomastigote stage of Trypanosoma cruzi INC-5 infected in NIH mouse blood assessed as parasite lysis after 24 hrs by optical microscopic method; conditions: INC-5, Blood
Trypanosoma cruzi [4] = test: Trypanocidal activity against trypomastigote stage of Trypanosoma cruzi NINOA infected in NIH mouse blood assessed as […] parasite lysis after 24 hrs by optical microscopic method

| Compound | Activity (Trypanosoma cruzi [1]) | Activity (Trypanosoma cruzi [2]) | LC50 (Trypanosoma cruzi [3]) | LC50 (Trypanosoma cruzi [4]) |
| --- | --- | --- | --- | --- |
| O=C(O)CC(c1ccc(Br)cc1)N1C(=O)c2ccccc2C1=O (stereo unspecified) | 15% | 8% | – | – |
| Cc1ccc(C(N)CC(=O)O)cc1 (stereo unspecified) | 59% | 78% | 290 µM | 184 µM |
| NC(CC(=O)O)c1ccc([N+](=O)[O-])cc1 (stereo unspecified) | 68% | 50% | 249 µM | 125 µM |
| Cc1ccc2c(c1)C(=O)N(C(CC(=O)O)c1cccs1)C2=O (stereo unspecified) | 48% | 47% | – | – |
| Cc1ccc2c(c1)C(=O)N(C(CC(=O)O)c1ccc(F)cc1)C2=O (stereo unspecified) | 56% | 63% | 74.6 µM | 45.2 µM |
| O=C(O)CC(c1ccc2c(c1)OCCO2)N1C(=O)c2ccc(C(=O)O)cc2C1=O (stereo unspecified) | 47% | 33% | – | – |
| Cc1ccc2c(c1)C(=O)N(C(CC(=O)O)c1ccc(-c3ccccc3)cc1)C2=O (stereo unspecified) | 25% | 25% | – | – |
| O=C(O)CC(c1cccs1)N1C(=O)c2ccc(C(=O)O)cc2C1=O (stereo unspecified) | 19% | 67% | – | – |
| Cc1ccc2c(c1)C(=O)N(C(CC(=O)O)c1ccccc1[N+](=O)[O-])C2=O (stereo unspecified) | 65% | 22% | – | – |
| O=C(O)CC(c1cc2c(cc1[N+](=O)[O-])OCCO2)N1C(=O)c2ccc(C(=O)O)cc2C1=O (stereo unspecified) | 59% | 40% | – | – |
| NC(CC(=O)O)c1ccccc1[N+](=O)[O-] (stereo unspecified) | 63% | 23% | – | – |
| CCc1ccc(C(CC(=O)O)N2C(=O)c3ccc(C)cc3C2=O)cc1 (stereo unspecified) | 59% | 65% | – | – |
| O=C(O)CC(c1ccc(Cl)cc1)N1C(=O)c2ccc(C(=O)O)cc2C1=O (stereo unspecified) | 69% | 3% | – | – |
| O=C(O)CC(c1ccc(F)cc1)N1C(=O)c2ccccc2C1=O (stereo unspecified) | 52% | 63% | 81.4 µM | 90.8 µM |
| CC1CS(=O)(=O)CCN1/N=C/c1ccc([N+](=O)[O-])o1 (stereo unspecified) [NIFURTIMOX] | 50% | 40.74% | – | – |
| Cc1ccc2c(c1)C(=O)N(C(CC(=O)O)c1ccc(Cl)cc1)C2=O (stereo unspecified) | 51% | 52% | 52 µM | 37.7 µM |
| O=C(O)CC(c1ccc(-c2ccccc2)cc1)N1C(=O)c2ccc(C(=O)O)cc2C1=O (stereo unspecified) | 57% | 17% | – | – |
| O=C(O)CC(c1ccc([N+](=O)[O-])cc1)N1C(=O)c2ccccc2C1=O (stereo unspecified) | 80% | 62% | 119 µM | 53.5 µM |
| O=C(O)CC(c1ccccc1[N+](=O)[O-])N1C(=O)c2ccc(C(=O)O)cc2C1=O (stereo unspecified) | 68% | 48% | – | – |
| Cc1ccc(C(CC(=O)O)N2C(=O)c3ccc(C(=O)O)cc3C2=O)cc1 (stereo unspecified) | 55% | 85% | 39.9 µM | 110 µM |
| CCc1ccc(C(CC(=O)O)N2C(=O)c3ccccc3C2=O)cc1 (stereo unspecified) | 8% | 22% | – | – |
| Cc1ccc(C(CC(=O)O)N2C(=O)c3ccccc3C2=O)cc1 (stereo unspecified) | 22% | 23% | – | – |
| NC(CC(=O)O)c1ccc(Br)cc1 (stereo unspecified) | 18% | 20% | – | – |
| O=C(O)CC(c1ccc(Br)cc1)N1C(=O)c2ccc(C(=O)O)cc2C1=O (stereo unspecified) | 56% | 23% | – | – |
| NC(CC(=O)O)c1ccc(F)cc1 (stereo unspecified) | 62% | 35% | – | – |

| Compound | Activity (Trypanosoma cruzi [1]) | Activity (Trypanosoma cruzi [2]) | LC50 (Trypanosoma cruzi [3]) | LC50 (Trypanosoma cruzi [4]) |
| --- | --- | --- | --- | --- |
| Cc1ccc2c(c1)C(=O)N(C(CC(=O)O)c1cc3c(cc1[N+](=O)[O-])OCCO3)C2=O (stereo unspecified) | 63% | 47% | – | – |
| O=C(O)CC(c1cccs1)N1C(=O)c2ccccc2C1=O (stereo unspecified) | 25% | 22% | – | – |
| O=C(O)CC(c1ccc(-c2ccccc2)cc1)N1C(=O)c2ccccc2C1=O (stereo unspecified) | 22% | 31% | – | – |
| O=C(O)CC(c1cc2c(cc1[N+](=O)[O-])OCCO2)N1C(=O)c2ccccc2C1=O (stereo unspecified) | 13% | 54% | – | – |
| O=C(Cn1ccnc1[N+](=O)[O-])NCc1ccccc1 [BENZNIDAZOLE] | 56% | 46.3% | 124 µM | 130 µM |
| COc1ccc(C(CC(=O)O)N2C(=O)c3ccc(C(=O)O)cc3C2=O)cc1 (stereo unspecified) | 32% | 72% | – | – |
| Cc1ccc2c(c1)C(=O)N(C(CC(=O)O)c1ccc3c(c1)OCCO3)C2=O (stereo unspecified) | 40% | 47% | – | – |
| O=C(O)CC(c1ccc(Cl)cc1)N1C(=O)c2ccccc2C1=O (stereo unspecified) | 70% | 36% | – | – |
| O=C(O)CC(c1ccc(F)cc1)N1C(=O)c2ccc(C(=O)O)cc2C1=O (stereo unspecified) | 67% | 10% | – | – |
| NC(CC(=O)O)c1cc2c(cc1[N+](=O)[O-])OCCO2 (stereo unspecified) | 15% | 7% | – | – |
| O=C(O)CC(c1ccc([N+](=O)[O-])cc1)N1C(=O)c2ccc(C(=O)O)cc2C1=O (stereo unspecified) | 63% | 23% | – | – |
| NC(CC(=O)O)c1ccc2c(c1)OCCO2 (stereo unspecified) | 52% | 37% | – | – |
| CCc1ccc(C(CC(=O)O)N2C(=O)c3ccc(C(=O)O)cc3C2=O)cc1 (stereo unspecified) | 61% | 23% | – | – |
| COc1ccc(C(CC(=O)O)N2C(=O)c3ccccc3C2=O)cc1 (stereo unspecified) | 9% | 24% | – | – |
| Cc1ccc(C(CC(=O)O)N2C(=O)c3ccc(C)cc3C2=O)cc1 (stereo unspecified) | 67% | 73% | 43.6 µM | 85.6 µM |
| COc1ccc(C(CC(=O)O)N2C(=O)c3ccc(C)cc3C2=O)cc1 (stereo unspecified) | 57% | 78% | 59.5 µM | 65.6 µM |
| NC(CC(=O)O)c1ccc(Cl)cc1 (stereo unspecified) | 73% | 13% | – | – |
| COc1ccc(C(N)CC(=O)O)cc1 (stereo unspecified) | 54% | 83% | 256 µM | 102 µM |
| NC(CC(=O)O)c1ccc(-c2ccccc2)cc1 (stereo unspecified) | 37% | 32% | – | – |
| Cc1ccc2c(c1)C(=O)N(C(CC(=O)O)c1ccc(Br)cc1)C2=O (stereo unspecified) | 50% | 65% | 23 µM | 24.6 µM |
| O=C(O)CC(c1ccccc1[N+](=O)[O-])N1C(=O)c2ccccc2C1=O (stereo unspecified) | 68% | 56% | – | – |
| CCc1ccc(C(N)CC(=O)O)cc1 (stereo unspecified) | 50% | 65% | 264 µM | 113 µM |
| O=C(O)CC(c1ccc2c(c1)OCCO2)N1C(=O)c2ccccc2C1=O (stereo unspecified) | 41% | 24% | – | – |
| NC(CC(=O)O)c1cccs1 (stereo unspecified) | 32% | 8% | – | – |
| Cc1ccc2c(c1)C(=O)N(C(CC(=O)O)c1ccc([N+](=O)[O-])cc1)C2=O (stereo unspecified) | 25% | 45% | – | – |
